Source: PMC3946276 (European journal of pharmacology, 2013)

Molecular target: T1, G-protein coupled receptor 30 (GPR30) (Rattus norvegicus, UniProt O08878)
T1 sequence (O08878 1-375): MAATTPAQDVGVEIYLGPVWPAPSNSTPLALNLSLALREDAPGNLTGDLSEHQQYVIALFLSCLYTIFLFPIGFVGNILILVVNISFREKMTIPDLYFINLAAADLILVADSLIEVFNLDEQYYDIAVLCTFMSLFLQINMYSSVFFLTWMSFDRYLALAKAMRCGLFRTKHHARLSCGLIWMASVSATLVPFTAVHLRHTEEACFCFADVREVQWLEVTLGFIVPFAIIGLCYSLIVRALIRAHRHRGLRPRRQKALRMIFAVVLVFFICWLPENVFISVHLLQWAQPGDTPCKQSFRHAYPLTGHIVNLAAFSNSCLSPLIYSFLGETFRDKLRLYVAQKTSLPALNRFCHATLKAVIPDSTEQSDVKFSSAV
Assay: [3H]2ME2 saturation radioligand binding on WB cell membranes

In the case of `COc1cc2c(cc1O)CC[C@@H]1[C@@H]2CC[C@]2(C)[C@@H](O)CC[C@@H]12` [2ME2, 2-methoxyestradiol], the Kd is reported as ~10.1 nM.
